# Reference: patent US9809532B2, “Uses of histone acetyltransferase activators” (THE TRUSTEES OF COLUMBIA UNIVERSITY IN THE CITY OF NEW YORK, priority 2011, dated 2017)
# “And” between values parts separate entries of the source, which are not always exact repeats. Equal entries are not always repeated. Where two headings read alike, the source gives them in different places.
# Tests used:
# [1] = tested on: mice; experiment: Sensory threshold assessment; assay type: in vivo; details: vs vehicle, 5 mg/kg (FIG. 19)
# Protocol: To evaluate contextual fear learning, freezing was measured for 5 min (consecutively) in the chamber in which the mice was trained 24 hr after training. To evaluate cued fear learning, following contextual testing, the mice were placed in a novel context (triangular cage with smooth flat floor) for 2 min (pre-CS test), after which they were exposed to the CS for 3 min (CS test), and freezing was measured. Sensory perception of the shock was determined through threshold assessment. A sequence of single foot shocks was delivered to animals placed on the same electrified grid used for fear conditioning. Initially, a […] shock was delivered for 1 sec, and the animal behavior was evaluated for flinching, jumping, and vocalization. At 30 sec intervals the shock intensity was increased by […] and then returned to 0 mV in […] increments at 30 sec intervals. Threshold to vocalization, flinching, and then jumping was quantified for each animal by averaging the shock intensity at which each animal manifests a behavioral response to the foot shock.
# [2] = target: HDAC5FL (Homo sapiens, UniProt Q9UQL6); experiment: HDAC5FL activity assay (fluorescence)
# [3] = target: T1, HDAC7 (Homo sapiens, UniProt Q8WUI4); experiment: HDAC7 activity assay (fluorescence)
# T1 sequence (Q8WUI4 1-952): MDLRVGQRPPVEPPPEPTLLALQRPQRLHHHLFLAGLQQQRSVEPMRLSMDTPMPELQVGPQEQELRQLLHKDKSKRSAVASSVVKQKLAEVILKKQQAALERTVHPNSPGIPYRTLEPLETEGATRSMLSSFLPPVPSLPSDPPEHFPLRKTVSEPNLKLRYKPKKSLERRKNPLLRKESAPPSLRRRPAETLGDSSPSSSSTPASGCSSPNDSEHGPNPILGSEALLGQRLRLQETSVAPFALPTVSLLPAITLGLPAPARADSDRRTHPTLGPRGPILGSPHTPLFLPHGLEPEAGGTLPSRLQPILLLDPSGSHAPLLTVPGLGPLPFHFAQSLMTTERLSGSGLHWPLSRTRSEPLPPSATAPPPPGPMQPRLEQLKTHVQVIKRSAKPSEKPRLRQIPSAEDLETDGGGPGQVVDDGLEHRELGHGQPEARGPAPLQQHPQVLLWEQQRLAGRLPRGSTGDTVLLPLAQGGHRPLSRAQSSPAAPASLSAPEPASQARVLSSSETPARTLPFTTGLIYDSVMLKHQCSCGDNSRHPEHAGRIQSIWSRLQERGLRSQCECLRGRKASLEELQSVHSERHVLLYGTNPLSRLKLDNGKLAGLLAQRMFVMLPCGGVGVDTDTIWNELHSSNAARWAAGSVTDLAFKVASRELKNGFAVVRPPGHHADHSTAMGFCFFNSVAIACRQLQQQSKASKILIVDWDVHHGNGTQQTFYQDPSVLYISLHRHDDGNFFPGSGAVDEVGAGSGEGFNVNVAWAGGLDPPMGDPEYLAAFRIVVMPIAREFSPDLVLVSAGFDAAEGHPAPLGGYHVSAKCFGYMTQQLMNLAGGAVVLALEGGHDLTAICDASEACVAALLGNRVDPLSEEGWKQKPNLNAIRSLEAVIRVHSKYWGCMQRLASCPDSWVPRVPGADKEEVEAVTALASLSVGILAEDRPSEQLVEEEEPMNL
# [4] = Chronic administration, adverse effects; assay type: in vivo; details: 45 days, i.p., daily, 20 mg/kg
# [5] = Oral pharmacokinetics; assay type: in vivo; details: for Kp: brain/plasma
# [6] = target: human p300 (Homo sapiens, UniProt Q09472); experiment: p300 activation, in vitro assay; assay type: biochemical
# [7] = Acute toxicity experiments; assay type: in vivo; details: i.p.
# [8] = tested on: wild-type mice; experiment: Contextual fear conditioning; assay type: in vivo; details: for freezing 24 h after training: vs WT vehicle mice, single tone pairing with 0.35 mA foot shock
# Protocol: Contextual fear conditioning was performed to assess whether compound 1 is capable of enhancing memory. This type of cognitive test is much faster than other behavioral tasks that require multiple days of training and testing (J Clin Invest, 2004. 114(11): 1624-34; herein incorporated by reference in its entirety). The conditioning chamber was in a sound-attenuating box. A clear Plexiglas window allowed the experimenter to film the mouse performance with a camera placed on a tripod and connected to the Freezeframe software (MED Ass. Inc.). To provide background white noise (72 dB), a single computer fan was installed in one of the sides of the sound-attenuating chamber. […] The floor was removable, and after each experimental subject, it was cleaned with 75% ethanol and then with water. Only one animal at a time was present in the experimentation […].
# […] The mice remained in the chamber for an additional 30 sec after the end of the last pairing, after which they were returned to their home cages. Contextual fear conditioning was assayed 24 hr after training by replacing the animals in the conditioning context for a 5 min period, during which the incidence of freezing (immobile except for respiration) was recorded. […]
# Freezing behavior, defined as the absence of all movement except for that necessitated by breathing, was scored using the Freezeview software.
# To evaluate contextual fear learning, freezing was measured for 5 min (consecutively) in the chamber in which the mice was trained 24 hr after training. To evaluate cued fear learning, following contextual testing, the mice were placed in a novel context (triangular cage with smooth flat floor) for 2 min (pre-CS test), after which they were exposed to the CS for 3 min (CS test), and freezing was measured. Sensory perception of the shock was determined through threshold assessment. […] Initially, a […] shock was delivered for 1 sec, and the animal behavior was evaluated for flinching, jumping, and vocalization. […]
# [9] = target: human PCAF (Homo sapiens, UniProt Q92831); experiment: PCAF activation, in vitro assay; assay type: biochemical
# [10] = Kinetics in blood sampled from tails; assay type: in vivo, mice; details: 20 mg/kg i.p.
# Chain of human p300 (Q09472 whole entry): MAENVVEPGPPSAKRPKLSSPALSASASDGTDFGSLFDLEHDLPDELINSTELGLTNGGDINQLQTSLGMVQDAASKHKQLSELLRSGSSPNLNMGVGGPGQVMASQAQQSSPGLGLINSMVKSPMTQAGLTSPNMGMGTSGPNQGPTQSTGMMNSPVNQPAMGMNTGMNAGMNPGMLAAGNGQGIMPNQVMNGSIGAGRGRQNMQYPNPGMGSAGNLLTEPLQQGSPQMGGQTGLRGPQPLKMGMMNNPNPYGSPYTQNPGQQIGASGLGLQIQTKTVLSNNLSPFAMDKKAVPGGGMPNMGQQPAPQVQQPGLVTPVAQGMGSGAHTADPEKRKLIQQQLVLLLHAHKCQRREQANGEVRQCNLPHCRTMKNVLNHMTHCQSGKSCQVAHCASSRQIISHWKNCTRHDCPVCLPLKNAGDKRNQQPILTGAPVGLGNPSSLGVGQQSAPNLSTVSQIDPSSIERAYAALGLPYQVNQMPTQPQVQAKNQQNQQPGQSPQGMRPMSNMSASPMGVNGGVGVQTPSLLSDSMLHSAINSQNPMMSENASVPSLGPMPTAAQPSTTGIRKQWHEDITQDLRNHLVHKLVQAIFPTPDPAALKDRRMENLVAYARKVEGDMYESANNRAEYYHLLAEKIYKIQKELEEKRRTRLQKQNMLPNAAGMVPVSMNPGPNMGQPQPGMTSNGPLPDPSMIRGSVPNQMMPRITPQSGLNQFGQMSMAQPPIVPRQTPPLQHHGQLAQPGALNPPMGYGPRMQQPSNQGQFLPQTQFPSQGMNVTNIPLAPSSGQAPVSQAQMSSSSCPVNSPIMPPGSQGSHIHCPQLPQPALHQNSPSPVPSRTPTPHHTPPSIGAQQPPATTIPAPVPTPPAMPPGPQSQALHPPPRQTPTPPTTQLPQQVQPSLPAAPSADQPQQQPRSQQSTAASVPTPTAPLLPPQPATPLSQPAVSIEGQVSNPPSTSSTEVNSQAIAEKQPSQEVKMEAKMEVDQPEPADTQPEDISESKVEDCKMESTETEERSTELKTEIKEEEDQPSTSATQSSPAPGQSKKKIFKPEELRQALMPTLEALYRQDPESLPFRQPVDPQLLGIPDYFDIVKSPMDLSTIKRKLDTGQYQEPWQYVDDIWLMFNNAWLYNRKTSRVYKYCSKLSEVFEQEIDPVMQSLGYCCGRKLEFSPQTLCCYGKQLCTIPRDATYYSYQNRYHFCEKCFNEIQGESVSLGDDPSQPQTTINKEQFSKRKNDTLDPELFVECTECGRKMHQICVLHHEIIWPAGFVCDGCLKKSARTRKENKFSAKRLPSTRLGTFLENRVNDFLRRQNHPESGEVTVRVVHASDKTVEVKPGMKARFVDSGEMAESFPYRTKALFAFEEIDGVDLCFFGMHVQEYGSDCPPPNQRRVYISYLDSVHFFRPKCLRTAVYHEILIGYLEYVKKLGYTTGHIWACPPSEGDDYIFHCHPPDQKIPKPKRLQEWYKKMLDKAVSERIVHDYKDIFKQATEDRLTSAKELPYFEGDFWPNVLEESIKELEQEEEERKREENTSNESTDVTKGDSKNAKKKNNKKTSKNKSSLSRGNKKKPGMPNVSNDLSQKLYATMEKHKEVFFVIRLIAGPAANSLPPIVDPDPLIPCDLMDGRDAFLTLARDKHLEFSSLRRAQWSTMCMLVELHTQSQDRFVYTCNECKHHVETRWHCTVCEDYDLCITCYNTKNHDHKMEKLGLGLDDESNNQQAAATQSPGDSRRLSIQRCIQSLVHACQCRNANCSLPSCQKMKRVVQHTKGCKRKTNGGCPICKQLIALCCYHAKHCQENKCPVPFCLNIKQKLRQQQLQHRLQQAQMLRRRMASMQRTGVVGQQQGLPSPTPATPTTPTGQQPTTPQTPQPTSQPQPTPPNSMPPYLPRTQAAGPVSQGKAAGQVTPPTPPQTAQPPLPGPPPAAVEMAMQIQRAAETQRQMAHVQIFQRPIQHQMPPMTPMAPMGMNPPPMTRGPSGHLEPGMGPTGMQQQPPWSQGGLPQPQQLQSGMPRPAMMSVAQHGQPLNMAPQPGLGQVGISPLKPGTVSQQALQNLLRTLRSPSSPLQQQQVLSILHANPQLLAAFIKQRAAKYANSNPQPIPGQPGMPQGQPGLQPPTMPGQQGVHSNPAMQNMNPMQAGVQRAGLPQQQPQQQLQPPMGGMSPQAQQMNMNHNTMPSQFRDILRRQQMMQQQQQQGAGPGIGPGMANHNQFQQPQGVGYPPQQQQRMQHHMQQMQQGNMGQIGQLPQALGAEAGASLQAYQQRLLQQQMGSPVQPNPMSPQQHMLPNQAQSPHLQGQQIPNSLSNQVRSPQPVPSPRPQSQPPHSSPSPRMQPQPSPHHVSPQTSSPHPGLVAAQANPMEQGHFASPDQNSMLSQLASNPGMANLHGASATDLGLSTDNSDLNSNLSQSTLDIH
# Chain of human PCAF (Q92831 whole entry): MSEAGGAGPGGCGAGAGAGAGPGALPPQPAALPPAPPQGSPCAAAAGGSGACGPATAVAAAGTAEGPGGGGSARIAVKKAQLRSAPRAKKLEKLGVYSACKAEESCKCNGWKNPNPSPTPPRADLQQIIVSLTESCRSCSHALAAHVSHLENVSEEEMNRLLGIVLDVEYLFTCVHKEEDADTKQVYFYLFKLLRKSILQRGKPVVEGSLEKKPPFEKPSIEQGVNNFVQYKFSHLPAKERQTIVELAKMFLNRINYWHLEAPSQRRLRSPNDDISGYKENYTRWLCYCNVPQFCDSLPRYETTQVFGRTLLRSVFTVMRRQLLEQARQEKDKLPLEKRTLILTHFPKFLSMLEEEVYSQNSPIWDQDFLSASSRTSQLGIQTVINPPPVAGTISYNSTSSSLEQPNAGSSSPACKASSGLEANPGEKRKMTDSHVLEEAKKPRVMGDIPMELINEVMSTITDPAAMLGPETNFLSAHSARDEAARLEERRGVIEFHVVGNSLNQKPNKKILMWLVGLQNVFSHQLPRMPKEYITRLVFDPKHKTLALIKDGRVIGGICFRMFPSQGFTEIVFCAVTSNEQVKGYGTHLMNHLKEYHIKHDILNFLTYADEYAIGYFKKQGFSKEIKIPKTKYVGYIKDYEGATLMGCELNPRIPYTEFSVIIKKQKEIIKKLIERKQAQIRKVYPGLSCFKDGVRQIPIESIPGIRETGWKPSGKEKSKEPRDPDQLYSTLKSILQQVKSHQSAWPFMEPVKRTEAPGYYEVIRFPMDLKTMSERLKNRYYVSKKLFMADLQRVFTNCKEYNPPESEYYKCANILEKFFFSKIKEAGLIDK
# Chain of HDAC5FL (Q9UQL6 whole entry): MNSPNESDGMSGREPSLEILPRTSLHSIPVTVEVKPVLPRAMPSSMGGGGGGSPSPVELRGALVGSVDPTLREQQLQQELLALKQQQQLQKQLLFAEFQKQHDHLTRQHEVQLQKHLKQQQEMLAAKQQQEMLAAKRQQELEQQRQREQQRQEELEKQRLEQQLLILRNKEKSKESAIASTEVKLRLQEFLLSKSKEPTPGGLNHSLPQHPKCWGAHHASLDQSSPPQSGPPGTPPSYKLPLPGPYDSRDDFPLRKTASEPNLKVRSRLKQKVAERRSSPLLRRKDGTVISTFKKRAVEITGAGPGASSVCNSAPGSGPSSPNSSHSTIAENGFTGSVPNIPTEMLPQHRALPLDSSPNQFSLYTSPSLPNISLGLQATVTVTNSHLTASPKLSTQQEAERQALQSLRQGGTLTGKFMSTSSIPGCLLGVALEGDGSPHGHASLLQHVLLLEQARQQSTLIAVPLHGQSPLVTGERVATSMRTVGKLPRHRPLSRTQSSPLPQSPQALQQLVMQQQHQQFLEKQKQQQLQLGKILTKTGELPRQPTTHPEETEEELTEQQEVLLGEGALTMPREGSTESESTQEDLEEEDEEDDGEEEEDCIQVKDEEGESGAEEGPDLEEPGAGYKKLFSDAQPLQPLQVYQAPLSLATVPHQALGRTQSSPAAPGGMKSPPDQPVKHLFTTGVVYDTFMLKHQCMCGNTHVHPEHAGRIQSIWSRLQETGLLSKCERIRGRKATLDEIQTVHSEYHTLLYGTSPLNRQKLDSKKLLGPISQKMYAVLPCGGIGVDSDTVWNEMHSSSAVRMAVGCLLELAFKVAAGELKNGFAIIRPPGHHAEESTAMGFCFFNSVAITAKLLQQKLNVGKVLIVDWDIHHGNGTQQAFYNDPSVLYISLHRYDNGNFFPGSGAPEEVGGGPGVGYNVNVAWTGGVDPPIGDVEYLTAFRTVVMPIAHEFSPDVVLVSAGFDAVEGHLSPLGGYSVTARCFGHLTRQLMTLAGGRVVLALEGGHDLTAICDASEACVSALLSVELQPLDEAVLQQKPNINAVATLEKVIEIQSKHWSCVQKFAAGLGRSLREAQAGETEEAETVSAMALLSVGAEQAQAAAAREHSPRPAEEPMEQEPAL
compound,measurement,setting,value
CCOc1cccc(OCCN(C)C)c1C(=O)Nc1ccc(Cl)c(C(F)(F)F)c1 [Compound 1],sensory threshold,[1],no difference was observed
same,IC50,[2],> 200 µM
same,% Activity (HDAC5FL),"[2]; Compound 1 Log [nM] 3.0, Repeat1/Repeat2",99.80%
same,IC50,[3],> 200 µM
same,adverse effects on chronic administration,[4],did not have adverse effects
same,Kp,"[5]; po, read-out: AUC0-t ratio brain/plasma",6.6
same,Kp,"[5]; po, read-out: AUC0-∞ ratio brain/plasma",6.5
same,Kp,"[5]; po, read-out: Cmax ratio brain/plasma",5.7
same,amount in the brain compared with plasma,"[5]; dosed orally, FIG. 17",higher than that in the plasma
same,AUC0-t,"[5]; oral, brain",2149 ng·h/g
same,AUC0-∞,"[5]; oral, brain",2159 ng·h/g
same,Cmax,"[5]; oral, brain",1010 ng/g
same,MRT,"[5]; oral, brain",1.68 h
same,Tmax,"[5]; oral, brain",1 h
same,half-life,"[5]; oral, brain, read-out: t1/2 (converted)",0.99 h
same,AUC(0-inf),"[5]; oral, plasma",330 ng·h/mL
same,Cmax,"[5]; oral, plasma",177 ng/mL
same,MRT,"[5]; oral, plasma",1.5 h
same,Tmax,"[5]; oral, plasma",0.5 h
same,AUC0-t,"[5]; oral, plasma, read-out: AUC0-t",328 ng·h/mL
same,half-life,"[5]; oral, plasma, read-out: t1/2 (converted)",1.06 h
same,half-life,"[5]; po, brain and plasma, read-out: elimination half-lives in the brain and plasma",~1 h
same,effect on p300 activity,[6],increases p300 activity
same,EC50,[6]; FIG. 16,0.79 µM
same,effect on p300 activity,[6]; listed as compound 1,did not interfere with p300
same,"dose without any adverse effects, acute toxicity",[7],up to 300 mg/kg
same,freezing 24 h after training,[8]; 5 mg/kg,froze nearly twice as often
same,freezing 24 h after training,[8]; 20 mg/kg,froze nearly twice as often
same,memory effect,[8]; weaker training protocol,worked as a memory enhancer
same,EC50,[9],29 µM and 18.1 µM
same,time of peak in blood post-injection,[10],around 30 minutes
